Laboratory results published in article PMC8839821, “Potential Mechanisms Involved in the Protective Effect of Dicaffeoylquinic Acids from Artemisia annua L. Leaves against Diabetes and Its Complications” (Molecules, 2022).

How the values were obtained:
[1] = DPPH radical scavenging assay; conditions: mean ± SEM of two replicates
Procedure: 2,2-diphenyl-1-picrylhydrazil (DPPH) Radical Scavenging Assay was exploited to assess the free radical scavenging potential of ART-CQ and the pure compounds according to Motaal et al., 2011 [52]. Different concentrations of ART-CQ (8, 16, 48, 64 µg/mL) and the isolated compounds (2, 4, 12, 16 µg/mL) were used. Ascorbic acid was used as the standard positive control and water was used in place of samples as a blank. The IC50 value for the test samples and standard was evaluated.

[2] = tested on: human skin fibroblast (HSF) cells; assay: In vitro cell viability / cytotoxicity (SRB assay); format: cell-based; conditions: 72 h incubation, highest tested concentration 100 µg/mL
Procedure: (§1) Human Skin Fibroblasts (HSF) cell line was obtained from Nawah Scientific Inc. (Mokatam, Cairo, Egypt). Cells were kept in DMEM media with […] of streptomycin, 100 units/mL of penicillin and 10% of heat-inactivated fetal bovine serum in humidified, 5% (v/v) CO2 atmosphere at 37 °C.
Effect of the alcoholic extract and the isolated compounds on cell viability was evaluated to assess their safety utilizing SRB assay. An aliquot of 100 µL cell suspension (5 × 10^3 cells) was incubated with 100 μL media containing the test samples at concentrations (0.01, 0.1, 1, 10, 100 µg/mL) for 72 h. Media was removed and 150 μL of 10% TCA was added for fixing the cells that was further incubated at 4 °C for 1h. Cells were then washed with distilled water and 70 μL 0.4% SRB solution was added, and plates were placed in dark for 10 min. Plates were then washed with 1% acetic acid and left to dry overnight. 150 μL of 10 mM TRIS was then added and the absorbance was measured at 540 nm using a BMG LABTECH®-FLUOstar Omega microplate reader (Ortenberg, Germany). Experiments were done in triplicates and the IC50 was calculated.

[3] = target: T1, Dipeptidyl Peptidase IV (DPPIV) enzyme (Homo sapiens, UniProt P27487); assay: Dipeptidyl peptidase IV (DPPIV) inhibition assay (fluorometric inhibitor screening kit); format: biochemical; conditions: mean ± SEM of two replicates; read-out: DPPIV inhibitory activity IC50 (converted)
T1 construct: purchased Abnova
T1 sequence (P27487 whole entry, species assumed): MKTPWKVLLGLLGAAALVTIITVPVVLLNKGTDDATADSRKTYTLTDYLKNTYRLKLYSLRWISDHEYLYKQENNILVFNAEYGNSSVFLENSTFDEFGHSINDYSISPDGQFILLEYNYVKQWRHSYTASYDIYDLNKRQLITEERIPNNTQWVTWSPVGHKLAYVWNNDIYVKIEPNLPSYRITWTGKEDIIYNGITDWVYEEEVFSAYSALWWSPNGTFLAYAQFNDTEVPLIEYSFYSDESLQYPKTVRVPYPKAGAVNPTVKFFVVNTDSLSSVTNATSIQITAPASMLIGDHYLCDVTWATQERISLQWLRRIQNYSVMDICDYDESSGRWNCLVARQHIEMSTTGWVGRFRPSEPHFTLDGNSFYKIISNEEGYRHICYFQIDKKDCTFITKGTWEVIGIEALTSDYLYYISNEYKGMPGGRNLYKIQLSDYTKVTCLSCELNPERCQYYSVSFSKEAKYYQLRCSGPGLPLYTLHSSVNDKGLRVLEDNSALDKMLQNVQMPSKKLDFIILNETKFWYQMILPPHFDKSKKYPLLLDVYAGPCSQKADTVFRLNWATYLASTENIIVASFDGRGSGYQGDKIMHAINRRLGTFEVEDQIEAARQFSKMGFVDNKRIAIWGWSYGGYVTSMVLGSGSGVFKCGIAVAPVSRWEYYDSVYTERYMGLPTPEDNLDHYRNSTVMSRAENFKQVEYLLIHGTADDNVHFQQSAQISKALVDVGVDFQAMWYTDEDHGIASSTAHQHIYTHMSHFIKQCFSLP
Procedure: The dipeptidyl peptidase IV (DPPIV) inhibition effectiveness of the polar fraction of Artemisia annua (ART-CQ) and the isolated compounds was determined fluorometrically by using the DPPIV Inhibitor Screening Kit (Abnova, Taipei, Taiwan) following the manufacturer’s protocol. […] Then the enzyme substrate solution was added, and the […] was measured at Ex/Em = 360/460 nm. The plate was reincubated for 30 min at 37 °C and the […] was recorded again. Vidagliptin was used as the reference standard. The difference between the two readings was estimated and the IC50 was determined.

[4] = Ferric Reducing Antioxidant Power (FRAP) assay; conditions: ART-CQ 50 µg/mL, isolated compounds 25 µg/mL
Procedure: The DetectX® Ferric Reducing Antioxidant Power (FRAP™) Detection Kit (Arbor assays, Ann Arbor, MI, USA) was used to estimate the antioxidant and ferric reducing activity of the polar fraction of A. annua and the isolated compounds in accordance with the method of Benzie and Strain (1996). ART-CQ was utilized in a concentration of (50 µg/mL) while the isolated compounds were used in a concentration of (25 µg/mL). Ferric chloride standard and ascorbic acid control were used in the assay and the FRAP values were estimated and presented as µM FeCl2.

[5] = tested on: human skin fibroblast (HSF) cells; assay: Scratch wound healing assay; format: cell-based; conditions: for effect on scratch wound healing (in words): tested at 10, 100, 1000 µg/mL; for time to complete wound healing: control healed in 72 h
Procedure: as §1
The wound healing assay was conducted to evaluate the effect of different concentrations of the polar fraction and isolated compounds from Artemisia Annua on the migration ability of HSF cell line using the scratch wound healing assay as previously described. In a coated 12-well plates, cells were seeded at density of 2 × 10^5/well in 5% FBS-DMEM and cultured overnight at 37 °C and 5% CO2. On the following day, horizontal scratches were made into the confluent monolayer and the plates were washed with PBS and treated with fresh media containing the combined polar extract and the isolated compounds in concentrations of 10, 100, 1000 µg/mL. Control wells were done using only plain medium. The plates were incubated at 37 °C and 5% CO2 and images were captured using an inverted microscope at 24, 48 and 72 h time intervals. The acquired images were analyzed by MII ImageView software version 3.7. Experiments were performed in triplicates. Wound width was calculated as the average distance between the edges of the scratches. As cell migration enhanced, the wound width diminishes.

α-glucosidase = assay: α-Glucosidase inhibition assay (inhibitor screening kit); format: biochemical; conditions: mean ± SEM of two replicates
Procedure: The in vitro α-glucosidase inhibitory potential of ART-CQ and its isolated compounds was evaluated using the α-Glucosidase Inhibitor Screening Kit (Biovision, Milpitas, CA, USA). […] After incubation, 20 µL of the α-Glucosidase Substrate in buffer was added and the absorbance was measured kinetically at 410 nm for 60 min. The polar fraction was tested in concentrations (10, 50, 100, 200 µg/mL) while the concentrations of the isolated compounds were (5, 20, 50, 100 µg/mL).
The change in absorbance is directly proportional to enzyme activity and the presence of enzyme inhibitor reduces the formation of the end product with the resultant decrease in absorbance.

α-amylase enzyme = target: T2, α-amylase enzyme (Sus scrofa, UniProt P00690); assay: α-Amylase inhibition assay (CNPG3 hydrolysis, kinetic); format: biochemical, porcine pancreas
T2 construct: Alpha-amylase (porcine pancreas); purchased Sigma-Aldrich; host or cells: porcine pancreas
T2 sequence (P00690 16-511): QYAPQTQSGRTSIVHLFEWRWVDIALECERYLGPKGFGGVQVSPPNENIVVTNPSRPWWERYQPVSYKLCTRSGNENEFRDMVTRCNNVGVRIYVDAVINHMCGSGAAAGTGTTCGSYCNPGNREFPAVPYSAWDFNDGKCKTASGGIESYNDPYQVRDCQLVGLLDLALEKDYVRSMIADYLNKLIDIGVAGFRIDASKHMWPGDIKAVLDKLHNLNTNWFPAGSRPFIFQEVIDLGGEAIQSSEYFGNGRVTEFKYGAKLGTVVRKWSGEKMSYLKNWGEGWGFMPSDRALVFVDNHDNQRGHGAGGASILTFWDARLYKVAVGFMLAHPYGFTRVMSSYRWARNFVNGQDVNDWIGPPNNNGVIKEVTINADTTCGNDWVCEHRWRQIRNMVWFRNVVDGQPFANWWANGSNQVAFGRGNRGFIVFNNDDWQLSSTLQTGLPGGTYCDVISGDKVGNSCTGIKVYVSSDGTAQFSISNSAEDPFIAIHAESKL
Procedure: Alpha-amylase (porcine pancreas), 2-chloro-4-nitrophenyl-D-maltotrioside (CNPG3) and tetramethylsilane were from Sigma-Aldrich (St. Louis, MO, USA) while the remaining chemicals were from UFC Biotechnology. Spectrophotometric readings were performed using the microplate reader (Anthos Zenyth 200RT, Cambridge, UK). ^1H-NMR (400 MHz) analysis was carried out using Bruker NMR Spectrometer (Bruker, Yokohama, Japan). Spectra were recorded in CD3OD or DMSO-d6 with tetramethylsilane being employed as an internal standard, and chemical shift values were expressed in ppm.
The inhibitory effect of the polar fraction (ART-CQ) and isolated compounds from Artemisia Annua on the activity of α-amylase enzyme was assessed kinetically as previously described. […] The change in absorbance per min is proportional to the enzyme activity. Various concentrations of ART-CQ (10, 50, 100, 200 µg/mL) and isolated compounds (5, 20, 50, 100 µg/mL) were preincubated with the enzyme for 15 min at 37 °C before the addition of CNPG3.

aldose reductase enzyme = aldose reductase enzyme (Homo sapiens, UniProt P15121); assay: Aldose reductase inhibition assay (NADPH decrease at 340 nm, screening kit)
Procedure: Aldose reductase inhibitory activity was determined kinetically by measuring the decrease in the absorption of NADPH at 340 nm in a reaction mixture containing, in addition to NADPH, the enzyme, DL-glyceraldehyde and the samples [50]. This was accomplished using the Aldose Reductase Inhibitor Screening Kit (Biovision, Milpitas, CA, USA), in accordance with the manufacturer’s instructions. […] Then 60 μL of NADPH and 90 μL of enzyme solution were added and the plate was incubated in dark for 20 min at 37 °C. Subsequently, 40 μL of DL-glyceraldehyde was pipetted and the absorbance was determined at 340 nm at 37 °C for 90 min.

Row | IC50 (aldose reductase enzyme) | IC50 (α-amylase enzyme; mean ± SEM of two replicates) | SMILES | DPPH free radical scavenging, concentration for 50% scavenging (IC50) [1] | IC50 [2] | IC50 [3] | FRAP value relative to that of ascorbic acid [4] | effect on scratch wound healing (in words) [5] | α-glucosidase inhibitory activity IC50 (α-glucosidase) | α-amylase inhibitory effect (in words) (α-amylase enzyme) | wound width as % of the original wound width at 24 h ([5]; 10 µg/mL, 24 h, control 56%) | time to complete wound healing ([5]; 10 µg/mL) | wound width as % of the original wound width at 48 h ([5]; 10 µg/mL, 48 h, control 37%)
1 | – | – | O=C(C=Cc1ccc(O)c(O)c1)OC1CC(O)(C(=O)O)CC(OC(=O)C=Cc2ccc(O)c(O)c2)C1O (stereo not drawn) [Compound 1, 3,5-dicaffeoylquinic acid] | 30.94 ± 4.61 µg/mL | > 100 µg/mL | 436 nM | about 8 times that of the ascorbic acid | inhibited cell migration and wound healing | 157.13 ± 6.82 µg/mL | no α-amylase inhibitory effect | – | – | –
2 | – | – | O=C(C=Cc1ccc(O)c(O)c1)OC1CC(O)(C(=O)O)CC(O)C1OC(=O)C=Cc1ccc(O)c(O)c1 (stereo not drawn) [Compound 2, 4,5-dicaffeoylquinic acid] | 14.94 ± 0.60 µg/mL | > 100 µg/mL | 4400 nM | – | improved the wound healing | – | – | 40% | 48 h | –
3 | 16800 nM | 2850 nM | COC(=O)C1(O)CC(O)C(OC(=O)C=Cc2ccc(O)c(O)c2)C(OC(=O)C=Cc2ccc(O)c(O)c2)C1 (stereo not drawn) [Compound 3, 3,4-dicaffeoylquinic acid methyl ester] | 7.78 ± 0.24 µg/mL | > 100 µg/mL | 1080 nM | more than 30 times that of the ascorbic acid | improved the wound healing | 250.42 ± 8.44 µg/mL | – | – | 72 h | 23%
4 | – | – | O=C1O[C@H]([C@@H](O)CO)C(O)=C1O [ascorbic acid, reference compound] | 5.50 ± 0.30 µg/mL | – | – | – | – | – | – | – | – | –
